{"source": "patent US20220401385A1", "about": "“Combination Therapy Based on PD-1 Signaling Inhibitors” (Kyoto University, priority 2019, published 2022)", "key": {"[1]": {"system": "CD8+ T cells", "experiment": "Tumor-infiltrating CD8+ T cells in aged MC38 mice", "assay_type": "in vivo", "settings": "56-week old mice; combination with SPD; 13 days after tumor inoculation", "experimental": "(§1) FIG. 7 MC38 cells (5×10^5) were intradermally inoculated into 56-week old mice, which were treated along with the treatment schedule described in FIG. 1. PD-L1 antibody (2 mg/kg) and SPD (2 mg/kg) were used. a) Tumor growth curve and survival curve are shown. b) The frequency of CD8^+ T cells among lymphocytes infiltrating into tumor (in CD45^+ gate) and the absolute number of CD8^+ T cells per mg tumor 13 days after tumor inoculation are shown. c) CD8^+ T cells were isolated from spleen cells on the same schedule as b) and cultured for 20 hours under the stimulation with CD3/CD28. Cell proliferation was examined by means of ^3H uptake. d) CD8^+ T cells were isolated from draining lymph nodes on the same schedule as b) and glycolytic pathway-derived or mitochondrial metabolism-derived ATP production was calculated by Seahorse. e) Spare respiratory capacity (SRC) was also calculated in the experiment (d).\nIt is known from mouse model experiments that the effect of PD-1 inhibitory antibody therapy decreases in aged mice due to their decreased immunity. […] CD8^+ T cells were isolated from draining lymph nodes 13 days after tumor inoculation and glycolytic pathway-derived or mitochondrial metabolism-derived ATP production was calculated by Seahorse. Spare respiratory capacity (SRC) was also calculated. […]"}, "[2]": {"system": "CD44 low CD8+ T cells", "experiment": "Cell proliferation by 3H uptake in vitro, CD44 low cells", "assay_type": "cell-based, mice", "settings": "SPD 0.2 μM, 24 hours", "experimental": "FIG. 4 CD8^+ T cells were isolated from the spleen of mice without tumor inoculation, and further isolated into CD44^+ (CD44 high) and CD44^− (CD44 low) cell populations. a) CD44 low cells were simulated with CD3/CD28 antibody beads and SPD (0.2 μM). After 30 minutes, 1 hour, 2 hours and 72 hours, OCR was measured with a Seahorse analyzer. b) At the same time, total ATP production and glycolytic pathway-derived or mitochondrial activity-derived ATP production were calculated at 30-minute, 1-hour and 2-hour. c) CD44 low cells (2×10^5 cells) were stimulated with CD3/CD28 antibody beads and SPD (0.2 μM). After 24 hours, cell proliferation was examined by means of 3H uptake. d) Spare respiratory capacity (SRC) was calculated from the OCR measurement after 72 hours in a), and results with and without SPD were compared. e) CD44 low cells were stimulated with CD3/CD28 antibody beads and SPD (0.2 μM). After 24 hours, frequencies between apoptotic and viable cells were calculated by PI and Annexin staining. f-j) CD44 high cells were analyzed under the same conditions and by the same methods as described in a-e) above. As regards statistical analysis, t-test was used for comparison of two groups, and ANOVA was used for comparison of three or more groups. * p<0.05, ** p<0.01, *** p<0.001, **** p<0.0001."}, "[3]": {"system": "CD8+ T cells", "experiment": "Seahorse ATP production and SRC of draining lymph node CD8+ T cells of treated aged mice", "assay_type": "in vivo", "settings": "56-week old mice, SPD combination treatment group", "experimental": "as §1\nOxygen consumption rates were measured using an XF96 Extracellular Flux Analyzer (Seahorse Bioscience). CD8^+ T cells (4×10^5) per well were seeded in a determined XF96 plate. […] In brief, basal OCR measurement was performed […] sequential addition of oligomycin, FCCP, and rotenone/antimycin A. SRC and ATP production rates were calculated by the following formulas: […]"}}}
{"smiles": "NCCCCNCCCN", "note": "[SPD, spermidine]", "values": [{"measurement": "number of CD8+ T cells in lymphocytes infiltrating into tumor", "setting": "[1]", "result": "increase"}, {"measurement": "cell proliferation", "setting": "[2]", "result": "increased"}, {"measurement": "SRCs of CD8+ T cells", "setting": "[3]", "result": "increased"}, {"measurement": "production of ATP, mitochondrial metabolism-dependent", "setting": "[3]", "result": "increased"}]}
